Experimental data from patent US5674875A, “Method of blocking human 5-hydroxytryptamine-2 receptors” (priority 1995, dated 1997).

Assays:
[1] = biological target: T1, cloned human 5-HT2 receptor (Homo sapiens, UniProt P28223); assay type: binding; conditions: cells containing cloned human 5-HT2 receptor; performed in triplicate
T1 construct: expressed in transfected cells

[2] = biological target: T2, rat 5-HT2 receptor (Rattus norvegicus, UniProt P14842); assay type: binding; conditions: brain tissue of male Sprague-Dawley rats; performed in triplicate
T2 construct: from tissue; host or cells: brain tissue of male Sprague-Dawley rats
T2 sequence (P14842 whole entry): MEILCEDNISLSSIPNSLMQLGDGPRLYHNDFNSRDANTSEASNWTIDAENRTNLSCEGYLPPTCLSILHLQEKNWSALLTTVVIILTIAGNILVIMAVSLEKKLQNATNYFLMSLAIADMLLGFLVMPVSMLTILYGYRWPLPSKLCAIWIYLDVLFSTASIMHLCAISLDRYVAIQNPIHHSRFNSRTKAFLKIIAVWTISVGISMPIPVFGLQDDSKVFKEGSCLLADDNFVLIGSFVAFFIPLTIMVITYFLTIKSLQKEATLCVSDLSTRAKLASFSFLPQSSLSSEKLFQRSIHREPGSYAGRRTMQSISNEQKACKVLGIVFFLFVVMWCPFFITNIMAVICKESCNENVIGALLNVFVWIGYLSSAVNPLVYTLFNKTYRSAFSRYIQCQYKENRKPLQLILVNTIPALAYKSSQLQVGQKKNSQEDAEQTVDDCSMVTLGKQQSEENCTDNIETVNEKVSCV
Excerpt: This is quite surprising in light of the N-substituted ergolines having a much greater affinity for the 5-HT2 receptors in rats compared to the corresponding N-unsubstituted ergolines.

T1 sequence (P28223 whole entry): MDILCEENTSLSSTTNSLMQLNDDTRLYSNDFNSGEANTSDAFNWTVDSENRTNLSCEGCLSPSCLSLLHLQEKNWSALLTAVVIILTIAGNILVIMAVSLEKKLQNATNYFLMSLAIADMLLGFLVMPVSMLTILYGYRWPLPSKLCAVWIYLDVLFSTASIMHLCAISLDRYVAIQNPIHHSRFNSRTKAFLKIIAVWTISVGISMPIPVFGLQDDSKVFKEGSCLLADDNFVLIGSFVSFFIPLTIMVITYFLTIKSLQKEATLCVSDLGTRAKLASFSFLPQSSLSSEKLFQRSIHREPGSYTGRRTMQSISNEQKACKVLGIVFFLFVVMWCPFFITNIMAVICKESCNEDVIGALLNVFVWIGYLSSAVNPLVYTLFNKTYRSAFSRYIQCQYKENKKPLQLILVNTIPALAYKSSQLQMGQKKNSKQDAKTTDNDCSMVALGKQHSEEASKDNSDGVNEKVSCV

`CC(C)n1cc2c3c(cccc31)C1CC(C(=O)NC3CC3O)CN(C)C1C2` (centres unmarked) [drawing 3 NH 2-hydroxycyclopropyl] showed an IC50 [1] of 27.7 nM and an IC50 [2] of 5.8 nM.
